Like-named read-outs stand apart in the source and are kept apart here.
How the values were obtained:
STAT6 = target: T1, STAT6 (Homo sapiens, UniProt P42226); assay: STAT6 Reporter Luciferase Assay (IL-13 stimulated HaCaT keratinocyte NanoLuc reporter cells); format: cell-based; settings: read-out: Reporter EC50
T1 construct: stably transfected HaCaT keratinocyte cell line, which expresses NanoLuc luciferase reporter gene under the transcriptional control of the STAT6 responsive promoter; endogenous in cells; host or cells: HaCaT keratinocyte reporter cell line (stably transfected with a NanoLuc reporter)
T1 sequence (P42226 1-847): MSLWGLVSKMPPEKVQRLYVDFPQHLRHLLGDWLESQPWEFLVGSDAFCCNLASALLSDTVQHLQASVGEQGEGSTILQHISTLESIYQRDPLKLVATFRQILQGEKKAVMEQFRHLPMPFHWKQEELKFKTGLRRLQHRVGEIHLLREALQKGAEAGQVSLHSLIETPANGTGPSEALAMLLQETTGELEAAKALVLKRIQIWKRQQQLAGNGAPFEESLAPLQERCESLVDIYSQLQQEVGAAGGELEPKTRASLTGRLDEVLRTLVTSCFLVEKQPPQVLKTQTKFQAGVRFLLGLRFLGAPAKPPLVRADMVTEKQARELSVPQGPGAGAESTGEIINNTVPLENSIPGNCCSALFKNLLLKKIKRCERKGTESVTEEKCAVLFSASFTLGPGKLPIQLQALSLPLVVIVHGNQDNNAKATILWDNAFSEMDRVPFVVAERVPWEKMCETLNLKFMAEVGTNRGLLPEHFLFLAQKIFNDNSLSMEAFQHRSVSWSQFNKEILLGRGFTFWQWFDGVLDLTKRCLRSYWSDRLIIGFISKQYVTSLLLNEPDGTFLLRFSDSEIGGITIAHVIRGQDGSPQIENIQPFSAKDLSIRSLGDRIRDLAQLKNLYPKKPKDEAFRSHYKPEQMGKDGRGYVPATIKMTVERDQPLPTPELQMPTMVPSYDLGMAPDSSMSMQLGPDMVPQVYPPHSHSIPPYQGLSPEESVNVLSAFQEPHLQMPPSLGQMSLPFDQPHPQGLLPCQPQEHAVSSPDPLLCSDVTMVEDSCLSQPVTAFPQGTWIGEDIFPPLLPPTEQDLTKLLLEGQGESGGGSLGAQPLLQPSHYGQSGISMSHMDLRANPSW
How it was run: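 Cells were plated overnight, washed, exposed to compound for two hours, stimulated with IL-13 (0.12 nM final) for four hours at 37 °C, and then lysed with Nano-Glo substrate for 15 min before luminescence reading.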

[1] = system: CCL17 secretion in peripheral human whole blood; assay: Human Whole Blood (HWB) CCL17 TR-FRET Assay (IL-13 stimulated CCL17 secretion); format: cell-based
How it was run: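 Heparinized human whole blood was preincubated with compound (11-point, 3-fold series) for 2 h at 37°C, then stimulated with IL-13 (10 ng/mL final) for 48 h. Serum CCL17 was measured by TR-FRET sandwich immunoassay (665/615 nm ratio) after 16 h at room temperature, giving IC50.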

[2] = IL-13 stimulated HaCaT STAT6 NanoLuc reporter cells
[3] = Homo sapiens, 48 h, human whole blood, IL-13 stimulated
[4] = Homo sapiens, 48 h, human whole blood, 10 ng/mL IL13, 48 hours
[5] = STAT6 NanoLuc luciferase reporter, IL-13 stimulated HaCaT keratinocyte cells
[6] = inhibition of CCL17 secretion in human whole blood, 10 ng/mL IL13, 48 hours

Row | Structure (SMILES) | EC50 (STAT6; [2]) [nM] | IC50 [1, 3] [nM] | further results
1 | CC(CO)n1nc(C(=O)NCc2ccc(NC(=O)N(C)C)cc2)c2c1CCN(c1ccc(C(=O)N(C)C)cn1)C2 (racemic) [Example 351, rac-(R)-5-(5-(dimethylcarbamoyl)pyridin-2-yl)-N-(4-(3,3-dimethylureido)benzyl)-1-(1-hydroxypropan-2-yl)-4,5,6,7-tetrahydro-1H-pyrazolo[4,3-c]pyridine-3-carboxamide] | 73 | 129 | –
2 | CC(CC#N)n1nc(C(=O)NCc2ccc(NC(=O)N(C)C)cc2)c2c1CCN(c1ccc(C(=O)N(C)C)cn1)C2 (racemic) [Example 358, rac-(R)-1-(1-cyanopropan-2-yl)-5-(5-(dimethylcarbamoyl)pyridin-2-yl)-N-(4-(3,3-dimethylureido)benzyl)-4,5,6,7-tetrahydro-1H-pyrazolo[4,3-c]pyridine-3-carboxamide] | 51 | 112 | –
3 | CCc1nc(C(=O)NCc2ccc(NC(=O)N(C)C)cc2)c2n1C(C)CN(c1ccc(C(=O)N(C)C)cc1)C2 (racemic) [Example 399, rac-(R)-7-(4-(dimethylcarbamoyl)phenyl)-N-(4-(3,3-dimethylureido)benzyl)-3-ethyl-5-methyl-5,6,7,8-tetrahydroimidazo[1,5-a]lpyrazine-1-carboxamide] | 2 | 9 | –
4 | CC(C)n1nc(C(=O)NCc2ccc(NC(=O)N(C)C)cc2)c2c1C(C(F)(F)F)CN(c1ncc(C(=O)N(C)C)cn1)C2 (racemic) [Example 459, rac-(R)-5-(5-(dimethylcarbamoyl)pyrimidin-2-yl)-N-(4-(3,3-dimethylureido)benzyl)-1-isopropyl-7-(trifluoromethyl)-4,5,6,7-tetrahydro-1H-pyrazolo[4,3-c]pyridine-3-carboxamide] | 0.3 | 2 | –
5 | CCn1nc(C(=O)NCc2ccc(NC(=O)N(C)C)cc2)c2c1C(C(F)(F)F)CN(c1ncc(C(=O)N(C)C)cn1)C2 (racemic) [Example 460, rac-(R)-5-(5-(dimethylcarbamoyl)pyrimidin-2-yl)-N-(4-(3,3-dimethylureido)benzyl)-1-ethyl-7-(trifluoromethyl)-4,5,6,7-tetrahydro-1H-pyrazolo[4,3-c]pyridine-3-carboxamide] | 0.3 | 7 | –
6 | CCn1nc(C(=O)NCc2ccc(C(=O)NC)cc2)c2c1C(C(F)(F)F)CN(c1ccc(C(=O)N(C)C)cn1)C2 (racemic) [Example 463, rac-(R)-5-(5-(dimethylcarbamoyl)pyridin-2-yl)-1-ethyl-N-(4-(methylcarbamoyl)benzyl)-7-(trifluoromethyl)-4,5,6,7-tetrahydro-1H-pyrazolo[4,3-c]pyridine-3-carboxamide] | 2.7 | 23 | –
7 | CC(C)n1nc(C(=O)NCc2ccc(NC(=O)N(C)C)cc2)c2c1CCN(c1ccc(C3CCNC3=O)cn1)C2 (racemic) [Example 469, rac-(R)—N-(4-(3,3-Dimethylureido)benzyl)-1-isopropyl-5-(5-(2-oxopyrrolidin-3-yl)pyridin-2-yl)-4,5,6,7-tetrahydro-1H-pyrazolo[4,3-c]pyridine-3-carboxamide] | 5110 | – | IC50 ([1]; human whole blood, IL-13 stimulated, 48 hours): > 4160 nM
8 | CC(C)n1nc(C(=O)NCc2ccc(NC(=O)N(C)C)cc2)c2c1C(O)CN(c1ccc(C(=O)N(C)C)cn1)C2 (racemic) [Example 472, rac-(R)-5-(5-(dimethylcarbamoyl)pyridin-2-yl)-N-(4-(3,3-dimethylureido)benzyl)-7-hydroxy-1-isopropyl-4,5,6,7-tetrahydro-1H-pyrazolo[4,3-c]pyridine-3-carboxamide] | 41 | 120 | –
9 | CC(C)n1nc(C(=O)NCc2ccc(NC(=O)N(C)C)cc2)c2c1CCN(c1ccc(C3CCN(C)C3=O)cn1)C2 (racemic) [Example 505, rac-(R)-N-(4-(3,3-dimethylureido)benzyl)-1-isopropyl-5-(5-(1-methyl-2-oxopyrrolidin-3-yl)pyridin-2-yl)-4,5,6,7-tetrahydro-1H-pyrazolo[4,3-c]pyridine-3-carboxamide] | 7900 | > 30000 | –
10 | CC1c2c(C(=O)NCc3ccc(NC(=O)N(C)C)cc3)nn(C(C)C)c2[C@@H](C)CN1c1ccc(C(=O)N(C)C)cn1 (mixture of isomers) [Example 524, (4RS,7S)-5-(5-(Dimethylcarbamoyl)pyridin-2-yl)-N-(4-(3,3-dimethylureido)benzyl)-1-isopropyl-4,7-dimethyl-4,5,6,7-tetrahydro-1H-pyrazolo[4,3-c]pyridine-3-carboxamide] | 0.1 | 6 | –
11 | CCn1nc(C(=O)NCc2ccc(NC(=O)N(C)C)cc2)c2c1C(C)CN(c1ncc(C(=O)N(C)C)cn1)C2 (racemic) [Example 531, rac-(R)-5-(5-(dimethylcarbamoyl)pyrimidin-2-yl)-N-(4-(3,3-dimethylureido)benzyl)-1-ethyl-7-methyl-4,5,6,7-tetrahydro-1H-pyrazolo[4,3-c]pyridine-3-carboxamide] | 1 | – | IC50 [1, 4]: 14 nM
12 | CC1CN(c2ncc(C(=O)N(C)C)cn2)Cc2c(C(=O)NCc3ccc(NC(=O)N(C)C)cc3)nn(C(C)C)c21 (racemic) [Example 532, rac-(R)-5-(5-(dimethylcarbamoyl)pyrimidin-2-yl)-N-(4-(3,3-dimethylureido)benzyl)-1-isopropyl-7-methyl-4,5,6,7-tetrahydro-1H-pyrazolo[4,3-c]pyridine-3-carboxamide] | 1 | – | IC50 [1, 4]: 4 nM
13 | CC(C)c1nc(C(=O)NCc2ccc(NC(=O)N(C)C)cc2)c2n1[C@@H](C)CN(c1ccc(C(=O)N(C)C)cc1)C2 (racemic) [Example 537, rac-(R)-7-(4-(Dimethylcarbamoyl)phenyl)-N-(4-(3,3-dimethylureido)benzyl)-3-isopropyl-5-methyl-5,6,7,8-tetrahydroimidazo[1,5-a]pyrazine-1-carboxamide] | 1 | – | IC50 [1, 4]: 10 nM
14 | CC(C)n1nc(C(=O)NCc2ccc(NC(=O)N(C)C)cc2)c2c1C(C(F)(F)F)CN(c1ccc(C(=O)N(C)C)cn1)C2 (racemic) [Example 546, rac-(R)-5-(5-(Dimethylcarbamoyl)pyridin-2-yl)-N-(4-(3,3-dimethylureido)benzyl)-1-isopropyl-7-(trifluoromethyl)-4,5,6,7-tetrahydro-1H-pyrazolo[4,3-c]pyridine-3-carboxamide] | 0.3 | – | IC50 [1, 4]: 5 nM
15 | CC1CN(c2ccc(C(=O)N(C)C)cn2)Cc2c(C(=O)NCc3ccc(NC(=O)N(C)C)cc3)nn(C)c21 (single isomer, unassigned) [Example 7, rel-(R or S)-5-(5-(Dimethylcarbamoyl)pyridin-2-yl)-N-(4-(3,3-dimethylureido)benzyl)-1,7-dimethyl-4,5,6,7-tetrahydro-1H-pyrazolo[4,3-c]pyridine-3-carboxamide] | – | – | EC50 (STAT6; [5]): 33 nM; IC50 [1, 6]: 196 nM
16 | CC1CN(c2ccc(C(=O)N(C)C)cn2)Cc2c(C(=O)NCc3ccc(NC(=O)N(C)C)cc3)nn(C)c21 (single isomer, unassigned) [Example 8, rel-(R or S)-5-(5-(Dimethylcarbamoyl)pyridin-2-yl)-N-(4-(3,3-dimethylureido)benzyl)-1,7-dimethyl-4,5,6,7-tetrahydro-1H-pyrazolo[4,3-c]pyridine-3-carboxamide] | – | – | EC50 (STAT6; [5]): 3 nM; IC50 [1, 6]: 14 nM
17 | Cc1nc(C(=O)NCc2ccc(NC(=O)N(C)C)cc2)c2n1C(C)CN(c1ccc(C(=O)N(C)C)cn1)C2 (single isomer, unassigned) [Example 53, rel-(R or S)-7-(5-(dimethylcarbamoyl)pyridin-2-yl)-N-(4-(3,3-dimethylureido)benzyl)-3,5-dimethyl-5,6,7,8-tetrahydroimidazo[1,5-a]pyrazine-1-carboxamide] | – | – | EC50 (STAT6; [5]): 8 nM; IC50 [1, 6]: 19 nM
18 | Cc1nc(C(=O)NCc2ccc(NC(=O)N(C)C)cc2)c2n1C(C)CN(c1ccc(C(=O)N(C)C)cn1)C2 (single isomer, unassigned) [Example 54, rel-(R or S)-7-(5-(dimethylcarbamoyl)pyridin-2-yl)-N-(4-(3,3-dimethylureido)benzyl)-3,5-dimethyl-5,6,7,8-tetrahydroimidazo[1,5-a]pyrazine-1-carboxamide] | – | – | EC50 (STAT6; [5]): 120 nM; IC50 [1, 6]: 332 nM

— patent US20250320213A1, “Nitrogen-Containing Heterocyclic Compounds” (Pfizer Inc., priority 2024, published 2025)
